Results on 1 compound are retold here after patent publication US6623914B2, “Method for preparing an acid salt of p-phenylenediamine-type photographic color developers” (Eastman Chemical Company, priority 2001, dated 2003).

Structures are written as SMILES.

The nature of the data set: Solubility (saturation concentration) of color developer free base in solvents at ambient temperature. As to conditions: ambient temperatures; liquid free base; stated, saturation concentration not evaluated.

Experimental: To define the free base solution product compositions, the solubility of the free base form of color developers N-ethyl-N-(2-methanesulfonylaminoethyl)-2-methyl-p-phenylenediamine and N-ethyl-N-(2-hydroxyethyl)-2-methyl-p-phenylenediamine was determined in a number of potential solvents at ambient temperature, nominally 24° C.
A small quantity, about 3 weight % relative to the weight of the solvent, of N,N-diethylhydroxylamine (DEHA) was added as a preservative to each determination. Excess color developer free base identified above was added to each solvent and saturation was achieved by mixing for several hours at room temperature.

In the case of `CCN(CC)c1ccc(N)cc1C` [N,N-diethyl-2-methyl-p-phenylenediamine], the “Miscibility with the water-soluble, water-miscible, hydroxy-containing solvent candidates” value is on record as “fully miscible”.
